Like-named read-outs stand apart in the source and are kept apart here.
Tests used:
Format in all cases: biochemical
[1] = molecular target: HDAC1 (Homo sapiens, UniProt Q13547); assay: HDAC enzymatic assay, HDAC1
Protocol: (§1) Each compound was dissolved in DMSO, and progressively diluted solutions were used for testing. […] Upon its deacetylation, the fluorophore was released given rise to fluorescence emission which was detected by a fluorimeter, and the IC50 values of the compounds were determined by analyzing dose-response inhibition curves.

[2] = molecular target: HDAC2 (Homo sapiens, UniProt Q92769); assay: HDAC enzymatic assay, HDAC2
HDAC2, sequence (Q92769 whole entry): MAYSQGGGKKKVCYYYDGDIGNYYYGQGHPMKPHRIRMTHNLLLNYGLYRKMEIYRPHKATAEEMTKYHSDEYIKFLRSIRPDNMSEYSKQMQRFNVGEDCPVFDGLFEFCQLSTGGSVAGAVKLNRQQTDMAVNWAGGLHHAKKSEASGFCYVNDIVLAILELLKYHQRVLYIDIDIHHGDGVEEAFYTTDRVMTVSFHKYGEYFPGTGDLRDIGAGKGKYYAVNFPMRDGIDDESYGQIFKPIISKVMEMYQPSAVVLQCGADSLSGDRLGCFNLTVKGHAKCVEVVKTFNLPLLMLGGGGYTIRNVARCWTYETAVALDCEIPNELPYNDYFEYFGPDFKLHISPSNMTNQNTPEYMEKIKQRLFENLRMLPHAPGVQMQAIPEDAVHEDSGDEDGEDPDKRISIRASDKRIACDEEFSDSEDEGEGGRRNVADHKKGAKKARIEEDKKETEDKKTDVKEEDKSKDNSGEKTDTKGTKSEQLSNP
Protocol: as §1

[3] = molecular target: T1, HDAC3 (complex of full length human HDAC3 with human NCOR2 amino acids 395-489) (Homo sapiens, UniProt O15379); assay: HDAC enzymatic assay, HDAC3
T1 construct: complex of full length human HDAC3 with a C-terminal His-tag; His-tag (C); host or cells: baculovirus expression system
T1 sequence (O15379 whole entry, the tested form may be a part): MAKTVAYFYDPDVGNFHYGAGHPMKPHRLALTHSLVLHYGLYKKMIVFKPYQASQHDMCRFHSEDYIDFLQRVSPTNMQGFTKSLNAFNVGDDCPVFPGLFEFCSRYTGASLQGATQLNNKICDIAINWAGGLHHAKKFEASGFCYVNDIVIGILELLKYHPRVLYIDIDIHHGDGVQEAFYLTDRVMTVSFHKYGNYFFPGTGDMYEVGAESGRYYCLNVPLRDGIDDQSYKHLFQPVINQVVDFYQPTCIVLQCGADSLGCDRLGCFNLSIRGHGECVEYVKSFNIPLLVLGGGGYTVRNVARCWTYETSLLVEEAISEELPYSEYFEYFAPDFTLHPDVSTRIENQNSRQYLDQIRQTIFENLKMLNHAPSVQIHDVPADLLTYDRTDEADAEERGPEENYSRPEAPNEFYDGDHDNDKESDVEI
T1 sequence (Q9Y618 395-489 partner limits assumed): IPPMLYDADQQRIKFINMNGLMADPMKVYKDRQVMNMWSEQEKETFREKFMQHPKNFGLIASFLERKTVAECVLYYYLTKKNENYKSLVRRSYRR
Protocol: as §1

[4] = molecular target: HDAC4 (Homo sapiens, UniProt P56524); assay: HDAC enzymatic assay, HDAC4
HDAC4, sequence (P56524 whole entry): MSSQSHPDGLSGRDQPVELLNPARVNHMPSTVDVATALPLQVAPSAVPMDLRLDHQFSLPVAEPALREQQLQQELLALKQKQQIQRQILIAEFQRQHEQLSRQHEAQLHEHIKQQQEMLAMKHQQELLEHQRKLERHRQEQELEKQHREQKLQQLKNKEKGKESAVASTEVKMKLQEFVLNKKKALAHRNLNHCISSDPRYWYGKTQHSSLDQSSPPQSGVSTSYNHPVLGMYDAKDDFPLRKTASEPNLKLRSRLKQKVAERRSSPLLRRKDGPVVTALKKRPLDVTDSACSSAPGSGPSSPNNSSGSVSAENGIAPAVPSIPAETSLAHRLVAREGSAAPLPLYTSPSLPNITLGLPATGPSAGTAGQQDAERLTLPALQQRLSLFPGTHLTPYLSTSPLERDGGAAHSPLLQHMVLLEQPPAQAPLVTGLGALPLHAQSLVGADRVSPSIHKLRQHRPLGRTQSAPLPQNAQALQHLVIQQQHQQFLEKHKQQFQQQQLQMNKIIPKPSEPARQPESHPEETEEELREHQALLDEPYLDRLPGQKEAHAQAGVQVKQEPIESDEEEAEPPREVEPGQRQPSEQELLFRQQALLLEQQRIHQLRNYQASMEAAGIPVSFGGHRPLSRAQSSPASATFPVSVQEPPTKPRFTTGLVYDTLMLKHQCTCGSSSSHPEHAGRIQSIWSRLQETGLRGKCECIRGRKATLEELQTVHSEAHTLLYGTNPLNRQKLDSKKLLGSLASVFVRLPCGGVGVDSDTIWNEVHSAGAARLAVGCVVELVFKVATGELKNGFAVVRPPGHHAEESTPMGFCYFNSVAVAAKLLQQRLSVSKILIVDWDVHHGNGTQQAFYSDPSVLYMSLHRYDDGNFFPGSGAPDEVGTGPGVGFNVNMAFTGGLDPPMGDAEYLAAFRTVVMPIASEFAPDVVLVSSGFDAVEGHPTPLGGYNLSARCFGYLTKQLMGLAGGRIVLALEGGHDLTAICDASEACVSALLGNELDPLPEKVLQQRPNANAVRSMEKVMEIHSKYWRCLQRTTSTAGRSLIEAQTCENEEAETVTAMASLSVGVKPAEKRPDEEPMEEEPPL
Protocol: as §1

[5] = molecular target: T2, HDAC6 (Homo sapiens, UniProt Q9UBN7); assay: HDAC enzymatic assay, HDAC6
T2 sequence (Q9UBN7 1-1215): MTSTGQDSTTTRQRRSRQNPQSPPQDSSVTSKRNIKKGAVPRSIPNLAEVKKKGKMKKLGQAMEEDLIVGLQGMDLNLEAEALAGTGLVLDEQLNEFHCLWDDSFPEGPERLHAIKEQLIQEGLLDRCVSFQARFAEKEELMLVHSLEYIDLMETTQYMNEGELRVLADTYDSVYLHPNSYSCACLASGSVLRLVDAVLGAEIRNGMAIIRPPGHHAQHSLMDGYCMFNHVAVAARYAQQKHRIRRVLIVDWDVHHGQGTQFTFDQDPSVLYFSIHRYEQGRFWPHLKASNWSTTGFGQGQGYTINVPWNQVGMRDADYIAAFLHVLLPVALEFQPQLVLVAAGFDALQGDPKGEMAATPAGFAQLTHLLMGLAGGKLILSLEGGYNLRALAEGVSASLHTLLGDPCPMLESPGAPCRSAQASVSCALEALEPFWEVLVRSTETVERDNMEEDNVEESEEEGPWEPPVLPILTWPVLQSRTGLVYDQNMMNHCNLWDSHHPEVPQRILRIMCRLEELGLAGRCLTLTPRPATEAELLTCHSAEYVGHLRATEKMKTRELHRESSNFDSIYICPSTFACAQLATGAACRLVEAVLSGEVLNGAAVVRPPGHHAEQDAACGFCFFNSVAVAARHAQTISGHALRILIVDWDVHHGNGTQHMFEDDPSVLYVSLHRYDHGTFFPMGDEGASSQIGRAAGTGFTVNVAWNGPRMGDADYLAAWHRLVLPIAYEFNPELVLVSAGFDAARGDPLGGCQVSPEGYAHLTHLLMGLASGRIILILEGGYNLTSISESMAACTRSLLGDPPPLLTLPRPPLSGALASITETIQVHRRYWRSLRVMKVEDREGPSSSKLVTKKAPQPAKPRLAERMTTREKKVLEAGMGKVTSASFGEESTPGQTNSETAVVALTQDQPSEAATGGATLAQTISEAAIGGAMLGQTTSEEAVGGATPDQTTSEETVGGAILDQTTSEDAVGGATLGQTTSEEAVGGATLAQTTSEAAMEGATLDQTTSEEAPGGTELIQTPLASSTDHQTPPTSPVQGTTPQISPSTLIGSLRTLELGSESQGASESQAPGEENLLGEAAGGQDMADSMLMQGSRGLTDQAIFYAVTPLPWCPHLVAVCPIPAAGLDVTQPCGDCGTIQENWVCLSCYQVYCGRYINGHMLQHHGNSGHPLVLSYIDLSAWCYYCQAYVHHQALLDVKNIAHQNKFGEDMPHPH
Protocol: as §1

[6] = molecular target: T3, HDAC10 (Homo sapiens, UniProt Q969S8); assay: HDAC enzymatic assay, HDAC10
T3 sequence (Q969S8 1-669): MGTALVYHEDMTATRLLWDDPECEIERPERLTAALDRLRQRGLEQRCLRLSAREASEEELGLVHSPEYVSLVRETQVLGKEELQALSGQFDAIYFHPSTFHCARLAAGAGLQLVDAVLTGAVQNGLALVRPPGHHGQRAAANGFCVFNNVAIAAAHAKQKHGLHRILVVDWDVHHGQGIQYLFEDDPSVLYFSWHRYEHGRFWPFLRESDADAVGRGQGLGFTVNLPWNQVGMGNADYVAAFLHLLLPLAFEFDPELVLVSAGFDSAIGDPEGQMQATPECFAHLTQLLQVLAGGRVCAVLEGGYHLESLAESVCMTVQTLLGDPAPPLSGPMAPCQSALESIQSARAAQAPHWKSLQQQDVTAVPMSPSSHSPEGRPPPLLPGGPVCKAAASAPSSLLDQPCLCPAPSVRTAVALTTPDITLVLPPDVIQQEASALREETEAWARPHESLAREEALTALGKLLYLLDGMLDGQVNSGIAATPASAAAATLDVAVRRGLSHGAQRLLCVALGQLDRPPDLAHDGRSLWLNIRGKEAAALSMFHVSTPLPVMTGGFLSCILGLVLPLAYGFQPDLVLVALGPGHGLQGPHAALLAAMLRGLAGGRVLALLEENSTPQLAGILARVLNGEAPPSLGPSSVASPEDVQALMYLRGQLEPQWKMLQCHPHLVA
Protocol: as §1

[7] = molecular target: T4, HDAC11 (Homo sapiens, UniProt Q96DB2); assay: HDAC enzymatic assay, HDAC11
T4 sequence (Q96DB2 1-347): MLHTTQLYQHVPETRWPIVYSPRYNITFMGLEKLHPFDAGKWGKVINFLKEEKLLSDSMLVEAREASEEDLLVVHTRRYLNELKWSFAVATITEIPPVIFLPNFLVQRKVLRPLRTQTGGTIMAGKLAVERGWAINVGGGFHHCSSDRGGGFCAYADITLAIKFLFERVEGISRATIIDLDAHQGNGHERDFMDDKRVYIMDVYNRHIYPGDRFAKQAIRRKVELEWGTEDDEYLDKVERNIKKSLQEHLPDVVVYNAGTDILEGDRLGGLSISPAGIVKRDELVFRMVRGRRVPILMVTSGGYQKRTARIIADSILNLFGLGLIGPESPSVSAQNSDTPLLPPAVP
Protocol: as §1

[8] = fluorogenic tetrapeptide RHKKAc substrate 10 μM, read-out: HDAC isoforms IC50 (nM), 1
[9] = fluorogenic tetrapeptide RHKKAc substrate 10 μM, read-out: HDAC isoforms IC50 (nM), 2
[10] = fluorogenic tetrapeptide RHKKAc substrate 10 μM, read-out: HDAC isoforms IC50 (nM), 3
[11] = fluorogenic tetrapeptide RHKKAc substrate 10 μM, read-out: HDAC isoforms IC50 (nM), 4
[12] = fluorogenic tetrapeptide RHKKAc substrate 10 μM, read-out: HDAC isoforms IC50 (nM), 6
[13] = fluorogenic tetrapeptide RHKKAc substrate 10 μM, read-out: HDAC isoforms IC50 (nM), 10
[14] = fluorogenic tetrapeptide RHKKAc substrate 10 μM, read-out: HDAC isoforms IC50 (nM), 11

HDAC1, sequence (Q13547 whole entry): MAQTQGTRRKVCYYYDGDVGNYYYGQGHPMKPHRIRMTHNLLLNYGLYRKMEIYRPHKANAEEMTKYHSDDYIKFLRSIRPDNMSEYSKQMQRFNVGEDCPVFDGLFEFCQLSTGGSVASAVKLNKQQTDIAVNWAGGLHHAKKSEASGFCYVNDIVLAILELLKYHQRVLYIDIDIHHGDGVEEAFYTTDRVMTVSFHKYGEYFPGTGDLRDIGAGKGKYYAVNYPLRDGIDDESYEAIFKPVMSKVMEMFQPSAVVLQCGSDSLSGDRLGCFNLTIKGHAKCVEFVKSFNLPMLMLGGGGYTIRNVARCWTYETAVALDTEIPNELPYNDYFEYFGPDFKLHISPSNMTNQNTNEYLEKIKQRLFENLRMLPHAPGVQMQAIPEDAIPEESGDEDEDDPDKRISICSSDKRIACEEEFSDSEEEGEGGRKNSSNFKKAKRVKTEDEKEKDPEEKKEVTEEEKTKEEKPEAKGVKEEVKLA

## O=C1C[C@@H](C(=O)N[C@@H](CCCCCS)C(=O)Nc2ccccc2)N1 [Example 27, (S)-4-Oxo-azetidine-2-carboxylic acid ((S)-6-mercapto-1-phenylcarbamoyl-hexyl)amide]
[1]; [8]
  IC50: < 50 nM
[2]; [9]
  IC50: 50 to 100 nM
[3]; [10]
  IC50: < 50 nM
[4]; [11]
  IC50: 100 to 500 nM
[5]; [12]
  IC50: < 50 nM
[6]; [13]
  IC50: < 50 nM
[7]; [14]
  IC50: < 50 nM

## O=C1NC[C@H](c2ccccc2)[C@@H]1C(=O)N[C@@H](CCCCCS)C(=O)Nc1ccccc1 [Example 28, (3S,4S)-2-Oxo-4-phenyl-pyrrolidine-3-carboxylic acid ((S)-6-mercapto-1-phenylcarbamoyl-hexyl)-amide]
[1]; [8]
  IC50: < 50 nM
[2]; [9]
  IC50: 100 to 500 nM
[3]; [10]
  IC50: < 50 nM
[4]; [11]
  IC50: < 50 nM
[5]; [12]
  IC50: < 50 nM
[6]; [13]
  IC50: < 50 nM
[7]; [14]
  IC50: < 50 nM

## O=C1NC[C@@H](c2ccccc2)[C@H]1C(=O)N[C@@H](CCCCCS)C(=O)Nc1ccccc1 [Example 29, (3R,4R)-2-Oxo-4-phenyl-pyrrolidine-3-carboxylic acid ((S)-6-mercapto-1-phenylcarbamoyl-hexyl)-amide]
[1]; [8]
  IC50: 50 to 100 nM
[2]; [9]
  IC50: 100 to 500 nM
[3]; [10]
  IC50: 50 to 100 nM
[4]; [11]
  IC50: < 50 nM
[5]; [12]
  IC50: < 50 nM
[6]; [13]
  IC50: < 50 nM
[7]; [14]
  IC50: < 50 nM

## O=C1NC[C@H](c2ccccc2)[C@H]1C(=O)N[C@@H](CCCCCS)C(=O)Nc1ccccc1 [Example 30, (3R,4S)-2-Oxo-4-phenyl-pyrrolidine-3-carboxylic acid ((S)-6-mercapto-1-phenylcarbamoyl-hexyl)-amide]
[1]; [8]
  IC50: 50 to 100 nM
[2]; [9]
  IC50: 100 to 500 nM
[3]; [10]
  IC50: 50 to 100 nM
[4]; [11]
  IC50: < 50 nM
[5]; [12]
  IC50: 100 to 500 nM
[6]; [13]
  IC50: < 50 nM
[7]; [14]
  IC50: < 50 nM

## O=C1NC[C@@H](c2ccccc2)[C@@H]1C(=O)N[C@@H](CCCCCS)C(=O)Nc1ccccc1 [Example 31, (3S,4R)-2-Oxo-4-phenyl-pyrrolidine-3-carboxylic acid ((S)-6-mercapto-1-phenylcarbamoyl-hexyl)-amide]
[1]; Table 2, thio (SH) vs hydroxamate (CONHOH) MBG analogues, read-out: HDAC isoforms, 1 (IC50)
  IC50: < 50 nM
[1]; [8]
  IC50: < 50 nM
[2]; Table 2, thio (SH) vs hydroxamate (CONHOH) MBG analogues, read-out: HDAC isoforms, 2 (IC50)
  IC50: < 50 nM
[2]; [9]
  IC50: < 50 nM
[3]; Table 2, thio (SH) vs hydroxamate (CONHOH) MBG analogues, read-out: HDAC isoforms, 3 (IC50)
  IC50: < 50 nM
[3]; [10]
  IC50: < 50 nM
[4]; Table 2, thio (SH) vs hydroxamate (CONHOH) MBG analogues, read-out: HDAC isoforms, 4 (IC50)
  IC50: < 50 nM
[4]; [11]
  IC50: < 50 nM
[5]; Table 2, thio (SH) vs hydroxamate (CONHOH) MBG analogues, read-out: HDAC isoforms, 6 (IC50)
  IC50: < 50 nM
[5]; [12]
  IC50: < 50 nM
[6]; Table 2, thio (SH) vs hydroxamate (CONHOH) MBG analogues, read-out: HDAC isoforms, 10 (IC50)
  IC50: < 50 nM
[6]; [13]
  IC50: < 50 nM
[7]; Table 2, thio (SH) vs hydroxamate (CONHOH) MBG analogues, read-out: HDAC isoforms, 11 (IC50)
  IC50: < 50 nM
[7]; [14]
  IC50: < 50 nM

## O=C1CCC[C@@H](C(=O)N[C@@H](CCCCCS)C(=O)N2CCc3ccccc3C2)N1 [Example 32, (S)-6-Oxo-piperidine-2-carboxylic acid [(S)-1-(3,4-dihydro-1H-isoquinoline-2-carbonyl)-6-mercapto-hexyl]-amide]
[1]; [8]
  IC50: 100 to 500 nM
[2]; [9]
  IC50: < 50 nM
[3]; [10]
  IC50: 100 to 500 nM
[4]; [11]
  IC50: < 50 nM
[5]; [12]
  IC50: 100 to 500 nM
[6]; [13]
  IC50: 100 to 500 nM
[7]; [14]
  IC50: 100 to 500 nM

Source: patent publication US8927533B2, “Thio derivatives bearing lactams as potent HDAC inhibitors and their uses as medicaments” (SIGMA-TAU Industrie Farmaceutiche Riunite S.p.A., priority 2011, dated 2015)
